Results taken from patent US20150140005A1, “Methods and Uses for Proprotein Convertase Subtilisin Kexin 9 (PCSK9) Inhibitors” (Cyon Therapeutics Inc., priority 2012, published 2015).

B1: AMG145: Amgen monoclonal antibody specific for the catalytic domain of PCSK9 (antibody, chains of the INN, looked up, V domains shown)
VH: EVQLVQSGAEVKKPGASVKVSCKASGYTLTSYGISWVRQAPGQGLEWMGWVSFYNGNTNYAQKLQGRGTMTTDPSTSTAYMELRSLRSDDTAVYYCARGYGMDVWGQGTTVTVSS
VL: ESALTQPASVSGSPGQSITISCTGTSSDVGGYNSVSWYQQHPGKAPKLMIYEVSNRPSGVSNRFSGSKSGNTASLTISGLQAEDEADYYCNSYTSTSMVFGGGTKLTVL

Columns and labels:
LPS treated LDLR−/− mice = assay: Responses to LPS treatment (lipopolysaccharide induced systemic inflammation) in LDLR−/− mice treated with saline or berberine; format: in vivo
Description: Healthy mice had activity level, body temperature, blood pressure, and cardiac function (echocardiography) assessed at baseline (time 0) as detailed below. Mice were then injected intra-peritoneally with LPS (20 mg/kg, E. coli strain 01 II: B4, Sigma™, St. Louis, Mo.). This dose was determined from previous experiments where, in the background strain of C57BL/6 mice, LPS 20 mg/kg delivered intra-peritoneally was the lowest dose, which was lethal in all cases within 12 hours^24. Then activity level and temperature were measured every hour for six hours. At six hours blood pressure was measured by invasive arterial cannulation and cardiac function (echocardiography) was assessed again.
Activity Index: Mice were observed during 2 minutes for posture and activity. 0 (normal) denotes that there are no times with a hunched posture, and the mouse had spontaneous rapid movements interspersed with eating and drinking. 1 (mild) is occasional brief (5-20 seconds) hunched posture, which spontaneously reverted to normal with ongoing spontaneous rapid movements interspersed with eating and drinking. 2 (mild-moderate) was longer (>20 seconds) in the hunched posture which spontaneously reverted to normal with ongoing spontaneous rapid movements interspersed with eating and drinking. 3 (moderate-severe) was nearly continual hunched posture with movement only when subjected to strong external stimuli. 4 (severe) was continual hunched posture without movement.
Temperature: Temperature was measured hourly using an infra-red thermometer (IR-101 La Crosse Technology, La Crosse USA)) held 2-3 mm from the abdomen.
Blood Pressure: At baseline (time 0) mean arterial blood pressure was measured using a non-invasive tail cuff (CODA 2™, Kent Scientific, Torrington, USA). Six hours after LPS injection, mice were anesthetized using inhaled isofluorane (1-3%). Following a small laparatomy, the abdominal aorta was punctured using a 27 gauge needle then a number 2 French micromanometer catheter (Mikro-tip SPR-838™, Millar Instruments Inc., Houston, Tex.) was inserted into the aorta. Mean arterial pressure was derived using analysis software (PVAN 2.9™, Millar Instruments Inc.).
Echocardiography: Mice were lightly anaesthetized using inhaled isofluorane (1-3%) and placed on a warming blanket. M-mode echocardiograms (ECHO) were targeted from 2D echos obtained using the Vevo 770 ECHO (Visualsonics™, Toronto, ON, Canada) operating at a 120 Hz frame rate. Left parasternal 2D left ventricular cross-sectional echocardiographic images were obtained. The position and angle of the echo transducer is maintained by directing the beam just off the tip of the anterior leaflet of the mitral valve and by maintaining internal anatomic landmarks constant. All measurements are taken from M-mode traces at end-expiration. Left ventricular internal dimensions were measured at end-diastole (defined as the onset of the QRS complex in lead II of the simultaneously obtained electrocardiogram) and at end-systole (defined as minimum internal ventricular dimension).
This is consistent with the hypothesis that the benefit derived from the inhibition of PCSK9 is the result of increased availability of LDLR and a subsequent reduction in plasma LDL.

PCSK9 = conditions: intravenous infusion, as early as 8 hours after injection, non-human primates; cited from earlier work
[1] = LDLR−/− mice, 6 hrs after LPS, median (95% CI), n = 4
[2] = LDLR−/− mice, baseline, median (95% CI), n = 4

Molecule | Activity 6 hrs LPS (LPS treated LDLR−/− mice; [1]) | EF 6 hrs LPS (LPS treated LDLR−/− mice; [1]) | MAP 6 hrs LPS (LPS treated LDLR−/− mice; [1]) | Activity Baseline (LPS treated LDLR−/− mice; [2]) | MAP Baseline (LPS treated LDLR−/− mice; [2]) | Temp. Baseline (LPS treated LDLR−/− mice; [2]) | Differences between saline and berberine mice in responses to LPS (LPS treated LDLR−/− mice; LPS treated LDLR−/− mice, berberine vs saline) | Circulating LDL-C levels (PCSK9)
COc1ccc2cc3[n+](cc2c1OC)CCc1cc2c(cc1-3)OCO2 [Berberine, berberine] | 0 (−0.8-0.3) | 26.0 (23.0-29.0) | 53 (52-54) | 0 (0-0) | 109 (93-125)^ | 37.0 (36.2-37.9) | minimal differences | –
B1 | – | – | – | – | – | – | – | significant reduction
